{TEG-Chol} = cholesteryl attached through a triethylene glycol (TEG) linker
Columns and labels:
EL-4 cells = assay: Apoptosis by phosphatidylserine redistribution (annexin V flow cytometry) in EL-4 cells; assay type: cell-based, murine; conditions: 24 hours; for Percentage of positive cells for phosphatidylserine (cells in apoptosis) in EL-4 cells: untreated cells 7%; for Induction of apoptosis in EL-4 cells (in words): translocation of phosphatidylserine, up to 53.0 μM
Description: Redistribution of plasma membrane phosphatidylserine is a characteristic of cells undergoing apoptosis (Martin et al., J. Exp. Med., 182:1545, 1995). The redistribution of phosphatidylserine in the plasma membrane during apoptosis was measured by flow cytometry using FITC (fluorescein isothiocyanate)-conjugated annexin V (BD Pharmingen, San Diego, Calif.). MEG-01 cells, a human chronic myelogeneous leukemia cell line positive for the Philadelphia chromosome and having a BCR-ABL gene fusion, were incubated at 2.5×10^5 cells/ml for 48 hours with 5.3, 26.5 and 53.0 μM final concentrations of SEQ ID NO:1, SEQ ID NO:2, SEQ ID NO:5, SEQ ID NO:6 and cholesteryl-TEG phosphoramidite molecule. The percentage of cells in apoptosis after exposure to the SEQ ID NOs:1, 2, 5, 6, or cholesteryl-TEG phosphoramidite treatment is reported in Table 2. The percentage of apoptosis in untreated MEG-01 cells was 12%.
EL-4 cells, a murine T lymphoma cell line, were incubated at 2.5×10^5 cells/ml for 24 hours with 0.53, 5.3 and 53.0 μM concentrations of SEQ ID NO:3, SEQ ID NO:7 or cholesteryl-TEG phosphoramidite. The percentage of cells in apoptosis after exposure to SEQ ID NO:3, SEQ ID NO:7 or cholesteryl-TEG phosphoramidite treatment is reported in Table 3. The percentage of apoptosis in untreated EL-4 cells was 7%.

HIG-82 cells = assay: HIG-82 synovial cell proliferation (MTT reduction); assay type: cell-based, rabbit; conditions: 53 μM, 48 hours; for Inhibition of HIG-82 cell proliferation, inhibition (%): MTT
How it was run: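 Adherent synovial cells at 10×10^5 cells/ml exposed 48 h to […] at 53 μM final. Proliferation measured by MTT reduction read at 570 nm and expressed as percentage inhibition.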

MCF-7 cells = assay: Treatment of pre-formed 3-dimensional MCF-7 structures on MATRIGEL; assay type: cell-based, human; conditions: MCF-7, 53 μM, repeated every 3-4 days up to 19-20 days, FIG. 3
Description: MCF-7 cells were cultured in regular culture medium (RCM), trypsinized and counted. 150×10^3 of MCF-7 cells, in wells of 24-well plates coated with 350 μl of MATRIGEL®. After the formation of 3-dimensional structures during 48 hrs without any treatment, the medium was changed and the structures were exposed to a final concentration of 53 μM of SEQ ID NO:3, 53 μM of SEQ ID NO:7, 53 μM of cholesteryl-TEG phosphoramidite, RCM or their respective control media (RCM with water, RCM with DMSO, or RCM with acetonitrile). The treatments were repeated every 3-4 days until a maximum time in culture of 19-20 days. The experiment was repeated three times. Digital photographs of the cells in the 24-well plates were taken using a Nikon Coolpix 990 digital camera connected to a Nikon inverted microscope model TMS.

[1] = tested on: MDA-MB-231 (MDA-231) cells; assay: Treatment of pre-formed 3-dimensional MDA-231 structures on MATRIGEL; assay type: cell-based, human; conditions: MDA-231, 53 μM, repeated every 3-4 days up to 17-21 days, FIG. 4
Description: The MDA-MB-231 (MDA-231) cells were cultured in regular culture medium, trypsinized and counted. 100×10^3 of MDA-231 cells were plated in regular culture medium (RCM), in wells of 24-well plates coated with 350 μl of MATRIGEL®. After the formation of 3-dimensional structures during 48 hrs without any treatment, the medium was changed, and structures were exposed to a final concentration of 53 μM of SEQ ID NO:3, 53 μM of SEQ ID NO:7, 53 μM of cholesteryl-TEG phosphoramidite, RCM, or their respective control media (RCM with water, RCM with DMSO or RCM with acetonitrile). The treatments were repeated every 3-4 days until a maximum time in culture of 17-21 days. The experiment was repeated three times. Digital photographs of the cells in the 24-well plates were taken using a Nikon Coolpix 990 digital camera connected to a Nikon inverted microscope model TMS.

Hs578T cells = assay: Cell cycle progression in Hs578T multicellular spheroids (PI staining); assay type: cell-based, human; conditions: 53 μM, 72 hrs, FIG. 5
Description: Multicellular spheroids (MS) is an example of a special in vitro assay, in which tumor cells are cultured in a 3-dimensional manner to form a “tumor-like” structure. In this system, there is a reinforcement of cell-cell interactions that mimic microenvironmental conditions of malignant cells in solid tumors in vivo. In this type of assay, no extracellular matrix components are added. Cells cultured in this MS system differ from those in 2-dimensional systems (monolayer culture conditions). Some of these differences are related to structural and functional differentiation of tumor cells, changes in the cell cycle of tumor cells, “multicellular drug resistance”, and changes in the diffusion and penetration of drugs throughout layers of tumor cells (reviewed in Green et al., Anticancer Drug Des. 14:153, 1999).
About 100×10^3 Hs578T cells per spheroid were cultured in presence of 53 μM final concentration of SEQ ID NO:3, SEQ ID NO:7, 53 μM final concentration of cholesteryl-TEG phosphoramidite (cholTEG) or corresponding control media (regular culture medium (RCM), RCM with the same amount of water (RCMW) as the amount added with the SEQ ID NO:7, and RCM with the same amount of acetonitrile (RCMA) as the amount added with cholesteryl-TEG phosphoramidite). Five spheroids per each experimental condition were cultured for 72 hrs. Afterwards, cell cycle progression was evaluated by propidium iodide (PI) staining (Calbiochem, Novabiochem Corporation, San Diego, Calif.) using a FACScalibur flow cytometer (Becton Dickinson, Franklin Lakes, N.J.). Changes in the percentage of cells in the different phases of the cell cycle were analyzed using MODFIT LT software (Verity Software House Inc).

Substance | Percentage of positive cells for phosphatidylserine (cells in apoptosis) in EL-4 cells (EL-4 cells; 0.53 μM) [%] | Percentage of positive cells for phosphatidylserine (cells in apoptosis) in EL-4 cells (EL-4 cells; 5.3 μM) [%] | Percentage of positive cells for phosphatidylserine (cells in apoptosis) in EL-4 cells (EL-4 cells; 53.0 μM) [%] | Induction of apoptosis in EL-4 cells (in words) (EL-4 cells) | Inhibition of proliferation of synovial HIG-82 cells (in words) (HIG-82 cells) | Inhibition of HIG-82 cell proliferation, inhibition (%) (HIG-82 cells) | Effect on pre-formed 3-dimensional structures on MATRIGEL (MCF-7 cells) | Effect on pre-formed 3-dimensional structures on MATRIGEL [1] | Cell cycle progression in multicellular spheroids (Hs578T cells)
5′ OH-CCACCC(TEG-cholesteryl) 3′ (3' {TEG-Chol}, sugars by position and backbone not given here) [SEQ ID NO:7] | 8 | 11 | 49 | capacity to induce apoptosis | capacity to inhibit the cellular proliferation | 53 | disrupted the growth pattern of the structures | disrupted the growth pattern of the structures | increased the percentage of cells in G2M and S-phase and decrease the percentage of cells in G0/G1
5′ OH-CCACCC-OH 3′ (listed as DNA, chemistry not fully specified) [SEQ ID NO:3] | 7 | 7 | 7 | neither SEQ ID NO:3 nor cholesteryl-TEG phosphoramidite caused apoptosis | did not inhibit proliferation | 0 | did not affect the 3-dimensional structures | did not affect the 3-dimensional structures | did not significantly modify cell cycle progression
